Measured values taken from publication PMC7414797 (Nature, 2015).
Converted amounts (≈) assume the structure as drawn. “And” between values parts separate entries of the source, which are not always exact repeats. Equal values may be shown once. Read-outs that look alike come from different tables or passages of the source.

Experiments:
[1] = system: Staphylococcus aureus; assay: MIC by broth microdilution; format: cell-based; conditions: for MIC90: Staphylococcus aureus
[2] = system: Enterococcus faecalis; assay: MIC by broth microdilution; format: cell-based; conditions: for MIC Range: Enterococcus faecalis 50% VRE, 10 contemporary clinical isolates; for MIC90: Enterococcus faecalis, VRE
[3] = system: Enterococcus faecium; assay: MIC by broth microdilution; format: cell-based; conditions: for MIC Range: E. faecium 50%VRE, 10 contemporary clinical isolates; for MIC90: Enterococcus faecium, VRE
[4] = system: Streptococcus pneumoniae; assay: MIC by broth microdilution; format: cell-based; conditions: for MIC90: Streptococcus pneumoniae, PRSP
[5] = system: Streptococcus pyogenes; assay: MIC by broth microdilution; format: cell-based; conditions: for MIC90: Streptococcus pyogenes
[6] = system: Streptococcus agalactiae; assay: MIC by broth microdilution; format: cell-based; conditions: for MIC90: Streptococcus agalactiae
[7] = system: Viridans group streptococci; assay: MIC by broth microdilution; format: cell-based
[8] = system: S. epidermidis; assay: MIC by broth microdilution; format: cell-based; conditions: for MIC90: Staphylococcus epidermidis
[9] = system: S. aureus MRSA ATCC33591; assay: Mouse sepsis protection model; format: in vivo, mice; conditions: MRSA septicemia, single i.v. dose 1 h post-infection, survival at 48 h
[10] = S. aureus Daptomycin^NS, 5 contemporary clinical isolates
[11] = S. aureus MRSA, 20 contemporary clinical isolates
[12] = S. aureus VISA, 10 contemporary clinical isolates
[13] = Staphylococcus aureus MSSA, 20 contemporary clinical isolates
[14] = S. pyogenes, 10 contemporary clinical isolates
[15] = S. agalactiae, 10 contemporary clinical isolates
[16] = Viridans Group Streptococci, 5 isolates (S. sanguis, S. mitis, S. anginosus, S. intermedius, S. salivarius)
[17] = S. epidermidis, 20 contemporary clinical isolates

For `CCCCCCCCCC(=O)N[C@@H](Cc1c[nH]c2ccccc12)C(=O)N[C@H](CC(N)=O)C(=O)N[C@@H](CC(=O)O)C(=O)N[C@@H]1C(=O)NCC(=O)N[C@@H](CCCN)C(=O)N[C@@H](CC(=O)O)C(=O)N[C@H](C)C(=O)N[C@@H](CC(=O)O)C(=O)NCC(=O)N[C@H](CO)C(=O)N[C@@H]([C@H](C)CC(=O)O)C(=O)N[C@@H](CC(=O)c2ccccc2N)C(=O)O[C@@H]1C` [Daptomycin], the “MIC Range” value [1, 10] was 2 to 8 µg/mL, the “MIC Range” value ([1]; S. aureus Linezolid^R, 5 contemporary clinical isolates) was 0.25 to 0.5 µg/mL and the “MIC Range” value [1, 11] was 0.12 to 0.25 µg/mL. For the same molecule, the “MIC Range” value [1, 12] was 0.25 to 1 µg/mL, the “MIC Range” value [1, 13] was 0.12 to 0.25 µg/mL and the MIC90 ([1]; MRSA) was 0.25 µg/mL (≈ 0.154 µM). For the same molecule, the MIC90 ([1]; MSSA) was 0.25 µg/mL (≈ 0.154 µM), the MIC90 ([1]; VISA) was 1 µg/mL (≈ 0.617 µM) and the “MIC Range” value [2] was 0.12 to 8 µg/mL. For the same molecule, the MIC90 [2] was 0.5 µg/mL (≈ 0.309 µM), the “MIC Range” value [3] was 0.5 to 1 µg/mL and the MIC90 [3] was 1 µg/mL (≈ 0.617 µM). The MIC90 [4] was at most 0.03 µg/mL, the “MIC Range” value [5, 14] was at most 0.03 to 0.06 µg/mL and the MIC90 [5] was 0.06 µg/mL (≈ 0.037 µM). For the same molecule, the “MIC Range” value [6, 15] was 0.06 to 0.25 µg/mL, the MIC90 [6] was 0.12 µg/mL (≈ 0.074 µM) and the “MIC Range” value [7, 16] was 0.06 to 0.25 µg/mL. For the same molecule, the “MIC Range” value [8, 17] was 0.06 to 0.25 µg/mL and the MIC90 [8] was 0.25 µg/mL (≈ 0.154 µM).
In the case of `CC(=O)NC[C@H]1CN(c2ccc(N3CCOCC3)c(F)c2)C(=O)O1` [Linezolid], the “MIC Range” value [1, 10] is reported as 1 to 32 µg/mL, the “MIC Range” value [1, 11] is reported as 2 to 4 µg/mL and the “MIC Range” value [1, 12] is reported as 1 to 4 µg/mL. The “MIC Range” value [1, 13] was 2 to 4 µg/mL, the MIC90 ([1]; MRSA) was 4 µg/mL (≈ 11.9 µM) and the MIC90 ([1]; MSSA) was 4 µg/mL (≈ 11.9 µM). For the same molecule, the MIC90 ([1]; VISA) was 2 µg/mL (≈ 5.93 µM), the “MIC Range” value [2] was 1 to 2 µg/mL and the MIC90 [2] was 2 µg/mL (≈ 5.93 µM). For the same molecule, the “MIC Range” value [3] was 1 to 2 µg/mL, the MIC90 [3] was 2 µg/mL (≈ 5.93 µM) and the MIC90 [4] was 1 µg/mL (≈ 2.96 µM). For the same molecule, the “MIC Range” value [5, 14] was 0.5 to 1 µg/mL, the MIC90 [5] was 1 µg/mL (≈ 2.96 µM) and the “MIC Range” value [6, 15] was 0.5 to 2 µg/mL. The MIC90 [6] was 1 µg/mL (≈ 2.96 µM), the “MIC Range” value [7, 16] was 0.5 to 1 µg/mL and the “MIC Range” value [8, 17] was 1 to 8 µg/mL. The MIC90 [8] was 2 µg/mL (≈ 5.93 µM).
`CN[C@H](CC(C)C)C(=O)N[C@H]1C(=O)N[C@@H](CC(N)=O)C(=O)N[C@H]2C(=O)N[C@H]3C(=O)N[C@H](C(=O)N[C@H](C(=O)O)c4cc(O)cc(O)c4-c4cc3ccc4O)[C@H](O)c3ccc(c(Cl)c3)Oc3cc2cc(c3O[C@@H]2O[C@H](CO)[C@@H](O)[C@H](O)[C@H]2O[C@H]2C[C@](C)(N)[C@H](O)[C@H](C)O2)Oc2ccc(cc2Cl)[C@H]1O` [Vancomycin, vancomycin] was tested, and the “MIC Range” value [1] was 0.5 to 1 µg/mL and 0.5 to 2 µg/mL and 1 to 8 µg/mL and 0.5 to 8 µg/mL and 1 µg/mL, the MIC90 ([1]; MRSA) was 1 µg/mL (≈ 0.69 µM) and the MIC90 ([1]; MSSA) was 1 µg/mL (≈ 0.69 µM). It also gave an MIC90 ([1]; VISA) of 8 µg/mL (≈ 5.52 µM), an MIC90 [2] of over 32 µg/mL and an MIC90 [3] of over 32 µg/mL. For the same molecule, the “MIC Range” value [4] was 0.12 to 0.5 µg/mL, the MIC90 [4] was 0.25 µg/mL (≈ 0.173 µM) and the “MIC Range” value [5] was 0.25 µg/mL (≈ 0.173 µM). For the same molecule, the MIC90 [5] was 0.25 µg/mL (≈ 0.173 µM), the “MIC Range” value [6] was 0.25 to 0.5 µg/mL and the MIC90 [6] was 0.5 µg/mL (≈ 0.345 µM). For the same molecule, the “MIC Range” value [7] was 0.25 to 0.5 µg/mL, the “MIC Range” value [8] was 1 to 2 µg/mL and the MIC90 [8] was 2 µg/mL (≈ 1.38 µM). For the same molecule, the “PD50 (protective dose at which half of the animals survive)” value [9] was 2.75 mg per kg.
